US10059698B2, “Hesperetin aza-cinnamic acid derivatives with anti-tumor activities and a method of preparing the same” (Shaanxi University of Science and Technology, priority 2016, dated 2018)

Key:
[1] = test system: human hepatocellular carcinoma cells (SMMC-7721); assay: tumor cell proliferation inhibition test (MTT), SMMC-7721; type: cell-based; details: SMMC-7721 cells, 48 hours
Text: (§1) The compounds of the present invention were subjected to tumor cell proliferation inhibition test, and the conventional MTT method was used as the test method.
(§2) Cell lines selected are nonismall cell lung cancer cells (A549), human hepatocellular carcinoma cells (SMMC-7721), human glioma cells (U251), human gastric adenocarcinoma cells (SGC-7901), and human breast cancer cells (MCF-7). The culture medium was DMEM+15% NBS+double antibody.
(§3) Preparation of the sample solutions: compounds were dissolved in DMSO (Merck), and PBS (−) was add to 100 μL of the solution or homogeneous suspension. The solution or suspension was diluted with DMSO and PBS(−) to final concentrations of 0.1, 1, 10, 20, 40, 60, 80, 100 μmol/L.
(§4) Anti-tumor agent cytarabine (Ara-C) was used as control and was prepared in the same way as the compounds.
(§5) Cell culture: adherent growth Tumor cells were cultured in 1640 medium containing 10% inactivated neonatal bovine serum and penicillin, streptomycin (1 million U/L), placed in carbon dioxide incubator at 37° C., 5% CO2, and saturated humidity. Cells were treated serially passaged 2-3 times. The first culture was washed with PBS 2 times, and digested with trypsin. Fresh culture medium was added evenly, cells were adjusted to a appropriate concentration and transferred into a new culture flask. Cell in an exponential phase were chosen for the tests.
(§6) Experimental Principle: Living cells mitochondria in the dehydrogenase can reduce yellow MTT to water-insoluble blue-violet product MT (MTT formazan), deposited in the cells. The amount of production is proportional to the number of living cells. […] DMSO can dissolve blue violet crystals, and the color depth is proportional to the amount contained, so the absorbance measured by the microplate reader can reflect the cell viability.
(§7) Methods: The exponential phase cells were digested and counted and seeded in 96-well plates at a density of 2×10^4/mL at 100 μl per well. After 24 hours of incubation, the cells to be tested were treated with 0.1, 1, 10, 20, 40, 60, 80, 100 μmol/L of the compounds. Each experimental group had 5 wells in each concentration, and the culture medium containing 0.4% DMSO was used as control. After 48 hours, the supernatant was discarded, and 100 μl of MTT ((2-(4,5-dimethyl-2-thiazolyl)-3,5-diphenyl-2H-[…]) (1 mg/mL) was added to each well. After another 4 hours, the supernatant was discarded, and 100 μL of DMSO was added to each well. After mixing, the absorbance was measured at 570 nm using a microplate reader. An IC50 calculation software was used to determine the half inhibitory concentration (IC50).

[2] = test system: human glioma cells (U251); assay: tumor cell proliferation inhibition test (MTT), U251; type: cell-based; details: U-251, 48 hours
Text: as §1, §2, §3, §4, §5, §6, §7

[3] = test system: nonismall cell lung cancer cells (A549); assay: tumor cell proliferation inhibition test (MTT), A549; type: cell-based; details: Homo sapiens, 48 hours
Text: as §1, §2, §3, §4, §5, §6, §7

[4] = test system: human breast cancer cells (MCF-7); assay: tumor cell proliferation inhibition test (MTT), MCF-7; type: cell-based; details: MCF7, MCF-7 cells, 48 hours
Text: as §1, §2, §3, §4, §5, §6, §7

[5] = test system: human gastric adenocarcinoma cells (SGC-7901); assay: tumor cell proliferation inhibition test (MTT), SGC-7901; type: cell-based; details: SGC-7901 cells, 48 hours
Text: as §1, §2, §3, §4, §5, §6, §7

[6] = test system: tumor cells (A549, SMMC-7721, U251, SGC-7901, MCF-7); assay: tumor cell proliferation inhibition test (MTT), all cell lines tested; type: cell-based, human; details: in some cell lines tested
Text: as §1, §2, §3, §4, §5, §6, §7

[7] = rats; cited from earlier work
HepG2 cells = details: in vitro; time-dependent and dose-effect relationship; cited from earlier work

Structure (SMILES) | IC50 [1] | IC50 [2] | IC50 [3] | IC50 [4] | IC50 [5] | activities compared with Ara-C [6] | toxicity of doxorubicin [7] | inhibition of proliferation of HepG2 cells (HepG2 cells)
COc1ccc([C@@H]2CC(=O)c3c(O)cc(OC(=O)/C=C/c4ccc(Cl)cn4)cc3O2)cc1O [Compound C, (S,E) 5-hydroxy-2-(3-hydroxy-4-methoxyphenyl)-4-oxochroman-7-yl 3-(5-chloropyridin-2-yl) acrylate acid ester] | 86.9 ± 2.28 µM | 11.7 ± 0.45 µM | 5.54 ± 0.39 µM | 22.7 ± 0.32 µM | 18.4 ± 1.71 µM | equal or better activities than Ara-C | – | –
COc1ccc([C@@H]2CC(=O)c3c(O)cc(OC(=O)/C=C/c4ccc([N+](=O)[O-])cn4)cc3O2)cc1O [Compound E, (S,E) 5-hydroxy-2-(3-hydroxy-4-methoxyphenyl)-4-oxochroman-7-yl 3-(5-nitropyridin-2-yl) acrylate acid ester] | > 100 µM | > 100 µM | > 100 µM | > 100 µM | > 100 µM | – | – | –
COc1ccc([C@@H]2CC(=O)c3c(O)cc(OC(=O)/C=C/c4ccccn4)cc3O2)cc1OC [Compound G, (S,E) 2-(3,4-dimethoxyphenyl)-5-hydroxy-4-oxochroman-7-yl 3-(pyridin-2-yl) acrylate acid ester] | > 100 µM | 28.5 ± 0.45 µM | 69.13 ± 0.36 µM | > 100 µM | > 100 µM | equal or better activities than Ara-C | – | –
COc1ccc([C@@H]2CC(=O)c3c(O)cc(OC(=O)/C=C/c4ccc(F)cn4)cc3O2)cc1OC [Compound J, (S,E) 2-(3,4-dimethoxyphenyl)-5-hydroxy-4-oxochroman-7-yl 3-(5-fluoropyridin-2-yl) acrylate acid ester] | 84.31 ± 0.47 µM | 25.1 ± 0.47 µM | 46.3 ± 0.47 µM | 16.1 ± 0.47 µM | > 100 µM | equal or better activities than Ara-C | – | –
COc1ccc([C@@H]2CC(=O)c3c(O)cc(OC(=O)/C=C/c4ccc([N+](=O)[O-])cn4)cc3O2)cc1OC [Compound K, (S,E) 2-(3,4-dimethoxyphenyl)-5-hydroxy-4-oxochroman-7-yl 3-(5-nitropyridin-2-yl) acrylate acid ester] | > 100 µM | > 100 µM | > 100 µM | > 100 µM | > 100 µM | – | – | –
COc1ccc([C@@H]2CC(=O)c3c(O)cc(O)cc3O2)cc1O [hesperetin, Hesperetin] | – | – | – | – | – | – | could reduce the toxicity of doxorubicin in rats | can inhibit the proliferation of HepG2 cells in vitro

Continued, in another order:

IC50 [1] | IC50 [2] | IC50 [3] | IC50 [4] | IC50 [5] | Structure (SMILES) | activities compared with Ara-C [6] | toxicity of doxorubicin [7] | inhibition of proliferation of HepG2 cells (HepG2 cells)
18.3 ± 0.64 µM | 19.2 ± 0.39 µM | > 100 µM | 76.9 ± 1.78 µM | 67.6 ± 3.73 µM | Nc1ccn([C@@H]2O[C@H](CO)[C@@H](O)[C@@H]2O)c(=O)n1 [Ara-C, cytarabine, reference compound] | – | – | –
46.8 ± 1.56 µM | > 100 µM | 35.1 ± 0.47 µM | 43.1 ± 1.31 µM | 89.9 ± 1.02 µM | COc1ccc([C@@H]2CC(=O)c3c(O)cc(OC(=O)/C=C/c4ccccn4)cc3O2)cc1O [Compound A, (S,E) 5-hydroxy-2-(3-hydroxy-4-methoxyphenyl)-4-oxochroman-7-yl 3-(pyridin-2-yl) acrylic acid ester] | equal or better activities than Ara-C | – | –
67.1 ± 1.74 µM | 46 ± 0.21 µM | > 100 µM | > 100 µM | > 100 µM | COc1ccc([C@@H]2CC(=O)c3c(O)cc(OC(=O)/C=C/c4ccc(C)cn4)cc3O2)cc1O [Compound B, (S,E) 5-hydroxy-2-(3-hydroxy-4-methoxyphenyl)-4-oxochroman-7-yl 3-(5-methylpyridin-2-yl) acrylate acid ester] | equal or better activities than Ara-C | – | –
12.8 ± 1.37 µM | 57.13 ± 0.47 µM | 7.28 ± 0.13 µM | 23.7 ± 1.5 µM | 67.13 ± 0.28 µM | COc1ccc([C@@H]2CC(=O)c3c(O)cc(OC(=O)/C=C/c4ccc(F)cn4)cc3O2)cc1O [Compound D, (S,E) 5-hydroxy-2-(3-hydroxy-4-methoxyphenyl)-4-oxochroman-7-yl 3-(5-fluoropyridin-2-yl) acrylate acid ester] | equal or better activities than Ara-C | – | –
23.7 ± 1.5 µM | > 100 µM | > 100 µM | 92.1 ± 2.73 µM | > 100 µM | COc1ccc([C@@H]2CC(=O)c3c(O)cc(OC(=O)/C=C/c4ccc(O)c(OC)n4)cc3O2)cc1O [Compound F, (S,E) 5-hydroxy-2-(3-hydroxy-4-methoxyphenyl)-4-oxochroman-7-yl 3-(5-hydroxy-6-methoxypyridin-2-yl) acrylate acid ester] | equal or better activities than Ara-C | – | –
47.88 ± 0.4 µM | > 100 µM | > 100 µM | > 100 µM | 63.9 ± 2.28 µM | COc1ccc([C@@H]2CC(=O)c3c(O)cc(OC(=O)/C=C/c4ccc(C)cn4)cc3O2)cc1OC [Compound H, (S,E) 2-(3,4-dimethoxyphenyl)-5-hydroxy-4-oxochroman-7-yl 3-(5-methylpyridin-2-yl) acrylate acid ester] | equal or better activities than Ara-C | – | –
63.9 ± 2.28 µM | 63.9 ± 2.28 µM | > 100 µM | > 100 µM | 16.1 ± 0.47 µM | COc1ccc([C@@H]2CC(=O)c3c(O)cc(OC(=O)/C=C/c4ccc(Cl)cn4)cc3O2)cc1OC [Compound I, (S,E) 2-(3,4-dimethoxyphenyl)-5-hydroxy-4-oxochroman-7-yl 3-(5-chloropyridin-2-yl) acrylate acid ester] | equal or better activities than Ara-C | – | –
33.3 ± 2.08 µM | > 100 µM | > 100 µM | 18.6 ± 1.01 µM | 63.87 ± 0.4 µM | COc1ccc([C@@H]2CC(=O)c3c(O)cc(OC(=O)/C=C/c4ccc(O)c(OC)n4)cc3O2)cc1OC [Compound M, (S,E) 2-(3,4-dimethoxyphenyl)-5-hydroxy-4-oxochroman-7-yl 3-(5-hydroxy-6-methoxypyridin-2-yl) acrylate acid ester] | equal or better activities than Ara-C | – | –
